Measurements published in ChEMBL document CHEMBL4000182, “Structure-activity relationships of benzothiazole GPR35 antagonists” (Bioorg Med Chem Lett, 2017).

biological target: T1, G-protein coupled receptor 35 (Homo sapiens, UniProt Q9HC97); test: Antagonist activity at HA tagged GPR35a (unknown origin) expressed in human U2OS cells co-expressing GFP-fused beta arrestin-2 assessed as inhibition of zaprinast induced effect; format: cell-based
T1 sequence (Q9HC97 whole entry, the tested form may be a part): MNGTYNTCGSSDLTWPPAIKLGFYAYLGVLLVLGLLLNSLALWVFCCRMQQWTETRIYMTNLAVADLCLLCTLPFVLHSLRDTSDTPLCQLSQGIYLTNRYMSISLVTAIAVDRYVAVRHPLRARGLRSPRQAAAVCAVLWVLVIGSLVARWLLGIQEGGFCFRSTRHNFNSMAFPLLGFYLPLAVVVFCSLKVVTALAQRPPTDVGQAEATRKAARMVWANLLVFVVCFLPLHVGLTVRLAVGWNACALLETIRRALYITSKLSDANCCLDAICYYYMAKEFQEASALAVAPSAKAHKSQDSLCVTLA

SMILES | IC50 [µM]
O=C(Nc1ccc2nc(SCc3ccc(Cl)cc3)sc2c1)c1ccccc1C(=O)N1CCOCC1 | 4.56
O=C(Nc1ccc2nc(SCc3ccc(Cl)cc3)sc2c1)c1ccccc1C(=O)N1CCCCC1 | > 30
O=C(Nc1ccc2nc(S(=O)(=O)Cc3ccc(Cl)cc3)sc2c1)c1ccccc1C(=O)N1CCOCC1 | 5.24
O=C(Nc1ccc2nc(SCc3ccncc3)sc2c1)c1ccccc1C(=O)N1CCOCC1 | > 30
O=C(Nc1ccc2nc(SCc3ccc(Cl)cc3)sc2c1)c1ccccc1C(=O)N1CCCC1 | > 30
O=C(Nc1ccc2nc([S@@+]([O-])Cc3ccc(Cl)cc3)sc2c1)c1ccccc1C(=O)N1CCOCC1 | > 30
O=C(Nc1ccc2nc(SCc3ccc(Cl)cc3)[nH]c2c1)c1ccccc1C(=O)N1CCOCC1 | > 30

Other lines, results leading:

IC50 [µM] | SMILES
7.23 | O=C(Nc1ccc2nc(SCc3ccccc3)sc2c1)c1ccccc1C(=O)N1CCOCC1
13 | O=C(Nc1ccc2nc([S+]([O-])Cc3ccc(Cl)cc3)sc2c1)c1ccccc1C(=O)N1CCOCC1 (stereo not drawn)
> 30 | O=C(Nc1ccc2nc([S@+]([O-])Cc3ccc(Cl)cc3)sc2c1)c1ccccc1C(=O)N1CCOCC1
17 | CC(Sc1nc2ccc(NC(=O)c3ccccc3C(=O)N3CCOCC3)cc2s1)c1ccc(Cl)cc1 (stereo not drawn)

biological target: T1, G-protein coupled receptor 35; test: Antagonist activity at human N-terminal HA-tagged GPR35a expressed in human U2OS cells co-expressing GFP-fused beta arrestin-2 assessed as inhibition of agonist induced redistribution of GFP-fused beta arrestin-2 preincubated for 15 mins followed by agonist addition by fluorescence assay; format: cell-based

SMILES | EC50 [µM]
O=C(Nc1ccc2nc(SCc3ccc(Cl)cc3)sc2c1)c1ccccc1C(=O)N1CCOCC1 | 0.55

biological target: T1, G-protein coupled receptor 35; test: Antagonist activity at GPR35 (unknown origin)

SMILES | IC50 [µM]
O=C(O)c1cc(=O)c2ccccc2[nH]1 [TRANSTORINE] | 39
